# Experimental data from ChEMBL document CHEMBL5576144, “Accelerated Discovery of Carbamate Cbl-b Inhibitors Using Generative AI Models and Structure-Based Drug Design” (J Med Chem, 2024).
# Columns and labels:
# [1] = target: E3 ubiquitin-protein ligase CBL-B (Homo sapiens, UniProt Q13191); assay: Inhibition of Cbl-b (unknown origin) by TR-FRET assay
# [2] = Lipophilicity, logD of compound in octanol/aqueous buffer at pH 7.4 incubated for 2 hrs by shake flask method; assay type: physicochemical; conditions: for logD at 2 h: octanol/aqueous buffer, pH 7.4
# [3] = Intrinsic clearance in human liver microsome at 1 uM incubated for 30 mins in presence of NADPH by LC-MS/MS analysis; assay type: ADME, microsomes; conditions: for microsomal CLint at 1 µM: liver microsomes, read-out: CLH
# Sequence of E3 ubiquitin-protein ligase CBL-B (Q13191 whole entry): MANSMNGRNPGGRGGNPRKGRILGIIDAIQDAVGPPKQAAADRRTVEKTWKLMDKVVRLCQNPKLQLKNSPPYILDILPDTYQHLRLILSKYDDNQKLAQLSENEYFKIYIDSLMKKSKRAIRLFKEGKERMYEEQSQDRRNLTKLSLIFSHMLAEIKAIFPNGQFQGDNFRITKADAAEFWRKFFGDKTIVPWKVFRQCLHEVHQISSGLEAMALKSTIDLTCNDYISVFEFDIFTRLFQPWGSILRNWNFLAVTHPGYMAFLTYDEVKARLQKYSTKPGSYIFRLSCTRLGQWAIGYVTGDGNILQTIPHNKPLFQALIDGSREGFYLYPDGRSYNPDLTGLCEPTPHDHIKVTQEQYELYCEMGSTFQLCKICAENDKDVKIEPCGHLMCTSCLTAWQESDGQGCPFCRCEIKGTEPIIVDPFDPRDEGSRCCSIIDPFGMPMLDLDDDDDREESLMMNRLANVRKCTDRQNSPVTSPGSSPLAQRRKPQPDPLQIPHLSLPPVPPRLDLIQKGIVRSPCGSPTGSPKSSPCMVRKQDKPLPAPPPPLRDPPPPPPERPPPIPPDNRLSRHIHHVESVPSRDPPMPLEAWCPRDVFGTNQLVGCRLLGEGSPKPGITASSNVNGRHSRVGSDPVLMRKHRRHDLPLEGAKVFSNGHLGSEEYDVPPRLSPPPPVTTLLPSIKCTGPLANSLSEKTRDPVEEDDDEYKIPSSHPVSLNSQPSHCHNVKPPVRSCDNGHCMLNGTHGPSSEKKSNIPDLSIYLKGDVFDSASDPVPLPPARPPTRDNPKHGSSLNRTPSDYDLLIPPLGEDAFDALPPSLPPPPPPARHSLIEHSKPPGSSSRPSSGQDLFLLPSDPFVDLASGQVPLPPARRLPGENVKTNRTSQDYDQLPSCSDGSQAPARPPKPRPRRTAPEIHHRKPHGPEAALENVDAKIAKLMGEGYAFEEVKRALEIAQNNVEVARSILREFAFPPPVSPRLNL
SMILES,IC50 [1] [µM],logD at 2 h [2],microsomal CLint at 1 µM [3] [µL/min/mg],"logD ([2]; octanol/water, pH 7.4, 2 h, 2 h)","CLH ([3]; microsomes, 0.5 h, 1 µM) [µL/min/mg]"
Cc1cc(C(=O)Nc2cccc([C@@]3(C)CCNC(=O)O3)c2)nc(C2CC2)n1,> 100,2.4,7.7,–,–
"Cc1cc(C(=O)Nc2cccc(C3(C)CNC(=O)O3)c2)nc(C2CC2)n1 (single isomer, unassigned; 14)",> 100,2.7,16,–,–
Cc1cc(C(=O)Nc2cccc([C@]3(C)CCNC(=O)C3)c2)nc(C2CC2)n1,28,2.7,34,–,–
Cc1cc(C(=O)Nc2cccc([C@]3(C4CC4)CCNC(=O)O3)c2)nc(C2CC2)n1,0.17,3,25,–,–
"Cc1cc(C(=O)Nc2cccc(C3(C)CNC(=O)O3)c2)nc(C2CC2)n1 (single isomer, unassigned; 15)",> 100,–,–,2.6,10
Cc1cc(C(=O)Nc2cccc([C@@]3(C)CCNC(=O)C3)c2)nc(C2CC2)n1,33,2.7,23,–,–
Cc1cc(C(=O)Nc2cccc([C@]3(c4nncn4C)C[C@@H](C)C3)c2)nc(C2CC2)n1,0.16,3.2,35,–,–
Cc1cc(C(=O)Nc2cccc(C3(C)CCNC(=O)N3)c2)nc(C2CC2)n1 (racemic),> 100,2.4,6.6,–,–
Cc1cc(C(=O)Nc2cccc([C@@]3(C4CC4)CCNC(=O)O3)c2)nc(C2CC2)n1,> 100,3,61,–,–
CC[C@]1(c2cccc(NC(=O)c3cc(C)nc(C4CC4)n3)c2)CCNC(=O)O1,> 100,2.9,54,–,–
CC[C@@]1(c2cccc(NC(=O)c3cc(C)nc(C4CC4)n3)c2)CCNC(=O)O1,1.4,3,27,–,–

# Second part, the molecule after the results:
IC50 [1] [µM],logD at 2 h [2],microsomal CLint at 1 µM [3] [µL/min/mg],"logD ([2]; octanol/water, pH 7.4, 2 h, 2 h)","CLH ([3]; microsomes, 0.5 h, 1 µM) [µL/min/mg]",SMILES
7.8,3.8,> 300,–,–,C[C@H]1CCCN(Cc2cc(C(F)(F)F)c3nn(-c4cccc([C@@]5(C6CC6)CCNC(=O)O5)c4)c(=O)n3c2)C1
> 100,2.7,75,–,–,Cc1cc(C(=O)Nc2cccc(C3(C)CCNC(=O)N3C)c2)nc(C2CC2)n1 (racemic)
37,3.4,230,–,–,C[C@H]1CCCN(Cc2cc(C(F)(F)F)c3nn(-c4cccc([C@@]5(C)CCNC(=O)C5)c4)c(=O)n3c2)C1
–,4,130,–,–,C[C@H]1CCCN(Cc2cc3c(c(C(F)(F)F)c2)CN(c2cccc([C@]4(c5nncn5C)C[C@@H](C)C4)c2)C3=O)C1
0.091,2.2,18,–,–,O=C1NCC[C@](c2cccc(-c3cc(C(F)(F)F)c[nH]c3=O)c2)(C2CC2)O1
1.2,3.5,170,–,–,C[C@H]1CCCN(Cc2cc(C(F)(F)F)c3nn(-c4cccc([C@]5(C)CCNC(=O)C5)c4)c(=O)n3c2)C1
6.6,3.2,> 300,–,–,C[C@H]1CCCN(Cc2cc(C(F)(F)F)c3nn(-c4cccc(C5(C)CC(=O)NC(=O)C5)c4)c(=O)n3c2)C1
6.5,4.3,> 300,–,–,CNC(=O)[C@]1(c2cccc(-n3nc4c(C(F)(F)F)cc(CN5CCC[C@H](C)C5)cn4c3=O)c2)C[C@H](C)C1
8.2,2.1,35,–,–,O=C1NCC[C@@](c2cccc(-c3cc(C(F)(F)F)c[nH]c3=O)c2)(C2CC2)O1
0.011,3.9,160,–,–,C[C@H]1CCCN(Cc2cc(C(F)(F)F)c3nn(-c4cccc([C@]5(c6nncn6C)C[C@@H](C)C5)c4)c(=O)n3c2)C1
0.007,3.7,260,–,–,C[C@H]1CCCN(Cc2cc(C(F)(F)F)c3nn(-c4cccc([C@]5(C6CC6)CCNC(=O)O5)c4)c(=O)n3c2)C1
> 10,5.3,> 300,–,–,CC1CC(c2cccc(-n3nc4c(C(F)(F)F)cc(CN5CCC[C@H](C)C5)cn4c3=O)c2)(n2cccn2)C1 (some centres not stated)
0.23,2.7,48,–,–,Cn1cnnc1[C@]1(c2cccc(-n3nc4c(C(F)(F)F)cccn4c3=O)c2)C[C@H](C)C1
2.1,4.9,> 300,–,–,C[C@H]1CCCN(Cc2cc(C(F)(F)F)c3nn(-c4cccc([C@]5(C(=O)N(C)C)C[C@@H](C)C5)c4)c(=O)n3c2)C1
4.8,2.5,5.9,–,–,Cc1cc(C(=O)Nc2cccc([C@]3(C)CCNC(=O)O3)c2)nc(C2CC2)n1
